Assay results taken from ChEMBL document CHEMBL2346498, “Expression, characterization and inhibition of Toxoplasma gondii 1-deoxy-D-xylulose-5-phosphate reductoisomerase” (Bioorg Med Chem Lett, 2013).

Assay: Inhibition of recombinant Toxoplasma gondii DXR catalytic domain (68 to 513) expressed in Escherichia coli BL21 using DXP as substrate after 10 mins by Uv-spectrophotometric analysis
Type: cell-free

Structure (SMILES)	Ki
O=CN(O)CCCP(=O)(O)O [FOSMIDOMYCIN]	90 nM
CC(=O)N(O)CCC(c1ccncc1)P(=O)(O)O (stereo unspecified)	530 nM
O=CN(O)CCC(c1ccncc1)P(=O)(O)O (stereo unspecified)	79 nM
O=P(O)(O)Cc1ccccn1 [PYRIDIN-2-YLMETHYLPHOSPHONIC ACID]	4100 nM
CC(=O)N(O)CCC(c1ccc(Cl)c(Cl)c1)P(=O)(O)O (stereo unspecified)	220 nM
O=CN(O)CCC(c1ccc(Cl)c(Cl)c1)P(=O)(O)O (stereo unspecified)	77 nM
CC(=O)N(O)CCC(c1cccnc1)P(=O)(O)O (stereo unspecified)	970 nM
CC(=O)N(O)CCCP(=O)(O)O [FR-900098]	48 nM
O=CN(O)CCC(c1cccnc1)P(=O)(O)O (stereo unspecified)	55 nM
O=P(O)(O)Cc1ccc(-c2ccccc2)cn1	2100 nM
O=c1ccc(-c2ccccc2)cn1O [1-HYDROXY-5-PHENYLPYRIDIN-2(1H)-ONE]	25600 nM
